Legend:
NPC CHO cells = assay: NPC cellular phenotype assay: lysosomal volume by LysoTracker flow cytometry; type: cell-based, Chinese Hamster; details: for LysoTracker fluorescence, fold change relative to untreated samples (normalised as 1.0): NPC CHO cells, treated 7 days, Mean±SD, n=3, concentration of the compared values not printed in the legend (b616 names 1 mM)
Procedure: FIG. 1 is a line graph showing the effect of acetyl-leucine (referred to as IB1000) and acetyl-leucine-2,3,3,4-d4 (referred to as DIB1000) in a NPC cellular phenotype assay. NPC CHO cells were treated with 1, 10, 100, 1000, and 5000 μM of acetyl-leucine or acetyl-leucine-2,3,3,4-d4 for 7 days. Data shown is Mean±SD of 1-3 biological repeats. LysoTracker fluorescence is expressed as fold change relative to responses obtained from untreated samples (normalised as 1.0). Acetyl-leucine; 0.79±0.05, Acetyl-leucine-2,3,3,4-d4; 0.45±0.03, unpaired t test, Two-tailed test, **p<0.01, n=3. The technique applied in the present study is described in te Vruchte et al., J. Clin. Invest. 3:1320-1328 (2014). Briefly, human fibroblasts from patients with Tay-Sachs Disease, AB Variant were purchased from the NINDS Human Genetic Repository at the Coriell Institute, 403 Haddon Avenue, Camden, N.J., 08103, USA. Fibroblasts or Chinese Hamster Ovary cells were grown in T75 culture flasks, treated for 7 days with compounds, trypsinized, centrifuged (180 g, 5 min), washed twice with 1×PBS, centrifuged again and were stained with 1 ml of 100 nM LysoTracker-green DND-26 (Invitrogen) in PBS (10 min, in dark). Following incubation, cells were centrifuged (800 g, 5 min), resuspended in 0.5 ml of FACS buffer (0.1% BSA, 0.02 M NaN3 in 1×PBS) and kept on ice for a maximum of 1 h prior to flow cytometric analysis (BD Biosciences FACSCanto II or Accuri C6 Plus). The cytometer was calibrated using Cytometer Setup and Tracking beads (BD), and compensation was performed using cells stained with Lysotracker or Propidium Iodide using BD FACSDiva software (BD) or BD Accuri C6 Plus software (BD).

[1] = test system: Tay-Sachs, AB Variant patient-derived fibroblast cells; assay: Tay-Sachs AB human fibroblast cell assay: lysosomal volume by LysoTracker flow cytometry; type: cell-based; details: for LysoTracker signal relative to untreated (1.00): Tay-Sachs AB Variant fibroblasts, 1 mM, 7 days, n=3
Procedure: FIG. 2 is bar graph showing the effect of acetyl-leucine (referred to as IB1000) and acetyl-leucine-2,3,3,4-d4 (referred to as DIB1000) in a Tay-Sachs AB human fibroblast cell assay. Tay-Sachs, AB Variant patient-derived fibroblast cells were treated with 1 mM acetyl-leucine or acetyl-leucine-2,3,3,4-d4 to compare LysoTracker signals. Untreated; 1.00±0.02, n=3, Acetyl-leucine; 0.97±0.01, n=3, Acetyl-leucine-2,3,3,4-d4; 0.91±0.02, n=3. One-way ANOVA was conducted for statistical analysis. */**p<0.003/0.02. The technique applied in the present study is described in te Vruchte et al., J. Clin. Invest. 3:1320-1328 (2014). Briefly, human fibroblasts from patients with Tay-Sachs Disease, AB Variant were purchased from the NINDS Human Genetic Repository at the Coriell Institute, 403 Haddon Avenue, Camden, N.J., 08103, USA. Fibroblasts or Chinese Hamster Ovary cells were grown in T75 culture flasks, treated for 7 days with compounds, trypsinized, centrifuged (180 g, 5 min), washed twice with 1×PBS, centrifuged again and were stained with 1 ml of 100 nM LysoTracker-green DND-26 (Invitrogen) in PBS (10 min, in dark). Following incubation, cells were centrifuged (800 g, 5 min), resuspended in 0.5 ml of FACS buffer (0.1% BSA, 0.02 M NaN3 in 1×PBS) and kept on ice for a maximum of 1 h prior to flow cytometric analysis (BD Biosciences FACSCanto II or Accuri C6 Plus). The cytometer was calibrated using Cytometer Setup and Tracking beads (BD), and compensation was performed using cells stained with Lysotracker or Propidium Iodide using BD FACSDiva software (BD) or BD Accuri C6 Plus software (BD).

[2] = Pharmacokinetic study, plasma concentration after p.o. administration; type: in vivo, male BALB/c mice; details: for AUC(0-t) / Cmax: male, BALB/c, mouse, plasma, po, 100 mg/kg, male BALB/c mice; for ratio for AUClast, deuterated analyte/non-deuterated analyte / ratio for Cmax, deuterated analyte/non-deuterated analyte: mice
Procedure: Acetyl-leucine, acetyl-L-leucine, acetyl-leucine-2,3,3,4-d4 (1-rac), and acetyl-L-leucine-2,3,3,4-d4 (1) were administered to male BALB/c mice via the oral (p.o) route. Plasma and tissue samples were collected at predetermined time points and analysed using HR/MS.

[3] = plasma analyte after p.o. acetyl-L-leucine 100 mg/kg
[4] = plasma analyte after p.o. acetyl-leucine 100 mg/kg
[5] = deuterated or non-deuterated acetyl-L-leucine administered p.o. 100 mg/kg
[6] = deuterated or non-deuterated acetyl-leucine (racemate) administered p.o. 100 mg/kg
[7] = plasma analyte after p.o. acetyl-L-leucine-2,3,3,4-d4 (1) 100 mg/kg in saline
[8] = plasma analyte after p.o. acetyl-L-leucine-2,3,3,4-d4 (1) 100 mg/kg
[9] = plasma analyte after p.o. acetyl-leucine-2,3,3,4-d4 (1-rac) 100 mg/kg in saline
[10] = plasma analyte after p.o. acetyl-leucine-2,3,3,4-d4 (1-rac) 100 mg/kg

| Compound | LysoTracker fluorescence, fold change relative to untreated samples (normalised as 1.0) (NPC CHO cells) [fold change] | LysoTracker signal relative to untreated (1.00) [1] | AUC(0-t) [2, 3] [ng·h/mL] | AUC(0-t) [2, 4] [ng·h/mL] | ratio for AUClast, deuterated analyte/non-deuterated analyte [2, 5] | ratio for Cmax, deuterated analyte/non-deuterated analyte [2, 5] | ratio for AUClast, deuterated analyte/non-deuterated analyte [2, 6] | ratio for Cmax, deuterated analyte/non-deuterated analyte [2, 6] | Cmax [2, 7] [ng/mL] | AUC(0-t) [2, 8] [ng·h/mL] | Cmax [2, 9] [ng/mL] | AUC(0-t) [2, 10] [ng·h/mL] | further results |
| --- | --- | --- | --- | --- | --- | --- | --- | --- | --- | --- | --- | --- | --- |
| CC(=O)NC(CC(C)C)C(=O)O (racemic) [acetyl-leucine, N-acetyl-DL-leucine] | 0.79±0.05 | 0.97±0.01 | – | – | – | – | – | – | – | – | – | – | – |
| [2H]C(C)(C)C([2H])([2H])[C@]([2H])(NC(C)=O)C(=O)O (racemic) [acetyl-leucine-2,3,3,4-d4, Acetyl-leucine-2,3,3,4-d4] | 0.45±0.03 | 0.91±0.02 | – | – | – | – | – | – | – | – | – | – | LysoTracker fluorescence level compared to acetyl-leucine (NPC CHO cells; NPC CHO cell line, 1 mM vs 1 mM acetyl-leucine): significant reduction; LysoTracker fluorescence level compared to acetyl-leucine ([1]; Tay-Sachs AB Variant human fibroblast cell line, 1 mM vs 1 mM acetyl-leucine): significant reduction |
| CC(=O)N[C@H](CC(C)C)C(=O)O [acetyl-D-leucine, N-acetyl-D-leucine, reference compound] | – | – | 573 | 57800 | – | – | – | – | – | – | – | – | – |
| [2H]C(C)(C)C([2H])([2H])[C@@]([2H])(NC(C)=O)C(=O)O [acetyl-D-leucine-2,3,3,4-d4] | – | – | – | – | 5.50 | 7.40 | 1.72 | 0.59 | 3230 | 3150 | 50600 | 99600 | – |
| CC(=O)N[C@@H](CC(C)C)C(=O)O [acetyl-L-leucine, N-acetyl-L-leucine, reference compound] | – | – | 11400 | 2600 | – | – | – | – | – | – | – | – | – |
| [2H]C(C)(C)C([2H])([2H])[C@]([2H])(NC(C)=O)C(=O)O [acetyl-L-leucine-2,3,3,4-d4, Acetyl-L-leucine-2,3,3,4-d4] | – | – | – | – | 1.61 | 1.75 | 1.32 | 1.14 | 29300 | 18200 | 3880 | 3430 | – |
